Laboratory results from patent publication US12077503B2, “Substituted cyclic amides and their use as herbicides” (FMC CORPORATION, priority 2015, dated 2024).

Experiments:
Format in all cases: in vivo
[1] = test system: giant foxtail (Setaria faberi); assay: Test G Post-Emergence Protocol; settings: Setaria faberi, post-emergence, 312 h, read-out: Foxtail, Giant damage rating; for pest or weed control at 15.625 g/ha: 15.625 g ai/ha, evaluated after 13 days (100=total damage to plant; 0=no damage to plant); for pest or weed control at 62.5 g/ha: 62.5 g ai/ha; for pest or weed control at 62.5 g/ha / pest or weed control at 250 g/ha: evaluated after 13 days, 100=total damage to plant, 0=no damage to plant; for pest or weed control at 250 g/ha: 250 g ai/ha
In short: (§1)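 Sow in soil; grow 8 d (24/16 °C, 14 h light, 65% humidity); spray 15.625/62.5/250 g/ha in acetone:water 50:50 + 0.5% Tween 20; grow on, water twice daily; score damage 0–100 at 13 d.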

corn (Zea mays) [2] = assay: Test G Post-Emergence Protocol; settings: Zea mays, post-emergence, 312 h, read-out: Corn damage rating; for plant injury at 15.625 g/ha: 15.625 g ai/ha, evaluated after 13 days (100=total damage to plant; 0=no damage to plant); for plant injury at 62.5 g/ha: 62.5 g ai/ha; for plant injury at 62.5 g/ha / plant injury at 250 g/ha: evaluated after 13 days, 100=total damage to plant, 0=no damage to plant; for plant injury at 250 g/ha: 250 g ai/ha
In short: as §1

[3] = test system: redroot pigweed (Amaranthus retroflexus); assay: Test G Post-Emergence Protocol; settings: Amaranthus retroflexus, post-emergence, 312 h, read-out: Pigweed, Redroot damage rating; for pest or weed control at 15.625 g/ha: 15.625 g ai/ha, evaluated after 13 days (100=total damage to plant; 0=no damage to plant); for pest or weed control at 62.5 g/ha: 62.5 g ai/ha; for pest or weed control at 62.5 g/ha / pest or weed control at 250 g/ha: evaluated after 13 days, 100=total damage to plant, 0=no damage to plant; for pest or weed control at 250 g/ha: 250 g ai/ha
In short: as §1

[4] = test system: ivy-leaved morning glory (Ipomoea hederacea); assay: Test G Post-Emergence Protocol; settings: Ipomoea, post-emergence, 312 h, read-out: Morningglory, Ivy-leaved damage rating; for pest or weed control at 15.625 g/ha: 15.625 g ai/ha, evaluated after 13 days (100=total damage to plant; 0=no damage to plant); for pest or weed control at 62.5 g/ha: 62.5 g ai/ha; for pest or weed control at 62.5 g/ha / pest or weed control at 250 g/ha: evaluated after 13 days, 100=total damage to plant, 0=no damage to plant; for pest or weed control at 250 g/ha: 250 g ai/ha
In short: as §1

[5] = test system: velvetleaf (Abutilon theophrasti); assay: Test G Post-Emergence Protocol; settings: Abutilon theophrasti, post-emergence, 312 h, read-out: Velvetleaf damage rating; for pest or weed control at 15.625 g/ha: 15.625 g ai/ha, evaluated after 13 days (100=total damage to plant; 0=no damage to plant); for pest or weed control at 62.5 g/ha: 62.5 g ai/ha; for pest or weed control at 62.5 g/ha / pest or weed control at 250 g/ha: evaluated after 13 days, 100=total damage to plant, 0=no damage to plant; for pest or weed control at 250 g/ha: 250 g ai/ha
In short: as §1

[6] = test system: barnyardgrass (Echinochloa crus-galli); assay: Test G Post-Emergence Protocol; settings: Echinochloa crus-galli, post-emergence, 312 h, read-out: Barnyardgrass damage rating; for pest or weed control at 15.625 g/ha: 15.625 g ai/ha, evaluated after 13 days (100=total damage to plant; 0=no damage to plant); for pest or weed control at 62.5 g/ha: 62.5 g ai/ha; for pest or weed control at 62.5 g/ha / pest or weed control at 250 g/ha: evaluated after 13 days, 100=total damage to plant, 0=no damage to plant; for pest or weed control at 250 g/ha: 250 g ai/ha
In short: as §1

[7] = test system: giant foxtail (Setaria faberi); assay: Test G Pre-Emergence Protocol; settings: Setaria faberi, pre-emergence, 312 h, evaluated after 13 days; for pest or weed control at 15.625 g/ha: 15.625 g ai/ha; for pest or weed control at 15.625 g/ha / pest or weed control at 250 g/ha: read-out: Foxtail, Giant damage rating (100=total damage to plant; 0=no damage to plant); for pest or weed control at 62.5 g/ha: 62.5 g ai/ha, 100=total damage to plant, 0=no damage to plant, read-out: Foxtail, Giant damage rating; for pest or weed control at 250 g/ha: 250 g ai/ha
In short: (§2)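 Under a 24/16° C day/night regime with 14 h light and 65% humidity, sown pots were sprayed after one day with compound (15.625, 62.5 or 250 g/ha; 50:50 acetone/water, 0.5% Tween 20). Damage was assessed visually 13 days later, 0 to 100.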

corn (Zea mays) [8] = assay: Test G Pre-Emergence Protocol; settings: Zea mays, pre-emergence, 312 h, evaluated after 13 days; for plant injury at 15.625 g/ha: 15.625 g ai/ha; for plant injury at 15.625 g/ha / plant injury at 250 g/ha: read-out: Corn damage rating (100=total damage to plant; 0=no damage to plant); for plant injury at 62.5 g/ha: 62.5 g ai/ha, 100=total damage to plant, 0=no damage to plant, read-out: Corn damage rating; for plant injury at 250 g/ha: 250 g ai/ha
In short: as §2

[9] = test system: redroot pigweed (Amaranthus retroflexus); assay: Test G Pre-Emergence Protocol; settings: Amaranthus retroflexus, pre-emergence, 312 h, evaluated after 13 days; for pest or weed control at 15.625 g/ha: 15.625 g ai/ha; for pest or weed control at 15.625 g/ha / pest or weed control at 250 g/ha: read-out: Pigweed, Redroot damage rating (100=total damage to plant; 0=no damage to plant); for pest or weed control at 62.5 g/ha: 62.5 g ai/ha, 100=total damage to plant, 0=no damage to plant, read-out: Pigweed, Redroot damage rating; for pest or weed control at 250 g/ha: 250 g ai/ha
In short: as §2

[10] = test system: ivy-leaved morning glory (Ipomoea hederacea); assay: Test G Pre-Emergence Protocol; settings: Ipomoea, pre-emergence, 312 h, evaluated after 13 days; for pest or weed control at 15.625 g/ha: 15.625 g ai/ha; for pest or weed control at 15.625 g/ha / pest or weed control at 250 g/ha: read-out: Morningglory, Ivy-leaved damage rating (100=total damage to plant; 0=no damage to plant); for pest or weed control at 62.5 g/ha: 62.5 g ai/ha, 100=total damage to plant, 0=no damage to plant, read-out: Morningglory, Ivy-leaved damage rating; for pest or weed control at 250 g/ha: 250 g ai/ha
In short: as §2

[11] = test system: velvetleaf (Abutilon theophrasti); assay: Test G Pre-Emergence Protocol; settings: Abutilon theophrasti, pre-emergence, 312 h, evaluated after 13 days; for pest or weed control at 15.625 g/ha: 15.625 g ai/ha; for pest or weed control at 15.625 g/ha / pest or weed control at 250 g/ha: read-out: Velvetleaf damage rating (100=total damage to plant; 0=no damage to plant); for pest or weed control at 62.5 g/ha: 62.5 g ai/ha, 100=total damage to plant, 0=no damage to plant, read-out: Velvetleaf damage rating; for pest or weed control at 250 g/ha: 250 g ai/ha
In short: as §2

[12] = test system: barnyardgrass (Echinochloa crus-galli); assay: Test G Pre-Emergence Protocol; settings: Echinochloa crus-galli, pre-emergence, 312 h, evaluated after 13 days; for pest or weed control at 15.625 g/ha: 15.625 g ai/ha; for pest or weed control at 15.625 g/ha / pest or weed control at 250 g/ha: read-out: Barnyardgrass damage rating (100=total damage to plant; 0=no damage to plant); for pest or weed control at 62.5 g/ha: 62.5 g ai/ha, 100=total damage to plant, 0=no damage to plant, read-out: Barnyardgrass damage rating; for pest or weed control at 250 g/ha: 250 g ai/ha
In short: as §2

SMILES | pest or weed control at 15.625 g/ha [1] | pest or weed control at 62.5 g/ha [1] | pest or weed control at 250 g/ha [1] | plant injury at 15.625 g/ha (corn (Zea mays) [2]) | plant injury at 62.5 g/ha (corn (Zea mays) [2]) | plant injury at 250 g/ha (corn (Zea mays) [2]) | pest or weed control at 15.625 g/ha [3] | pest or weed control at 62.5 g/ha [3] | pest or weed control at 250 g/ha [3] | pest or weed control at 15.625 g/ha [4] | pest or weed control at 62.5 g/ha [4] | pest or weed control at 250 g/ha [4] | pest or weed control at 15.625 g/ha [5] | pest or weed control at 62.5 g/ha [5] | pest or weed control at 250 g/ha [5] | pest or weed control at 15.625 g/ha [6] | pest or weed control at 62.5 g/ha [6] | pest or weed control at 250 g/ha [6] | pest or weed control at 15.625 g/ha [7] | pest or weed control at 62.5 g/ha [7] | also measured
Cc1c(F)cccc1NC(=O)[C@@H]1C(=O)N(C)C[C@H]1c1cccc(C(C)(C)O)c1 (racemic) [Compound 1819] | 0% | 40% | 80% | 0% | 0% | 20% | 0% | 0% | 10% | 0% | 0% | 50% | 0% | 0% | 0% | 0% | 20% | 80% | 20% | 80% | pest or weed control at 250 g/ha [7]: 90%; plant injury at 15.625 g/ha (corn (Zea mays) [8]): 0%; plant injury at 62.5 g/ha (corn (Zea mays) [8]): 0%; plant injury at 250 g/ha (corn (Zea mays) [8]): 60%; pest or weed control at 15.625 g/ha [9]: 0%; pest or weed control at 62.5 g/ha [9]: 0%; pest or weed control at 250 g/ha [9]: 20%; pest or weed control at 15.625 g/ha [10]: 0%; pest or weed control at 62.5 g/ha [10]: 0%; pest or weed control at 250 g/ha [10]: 0%; pest or weed control at 15.625 g/ha [11]: 0%; pest or weed control at 62.5 g/ha [11]: 0%; pest or weed control at 250 g/ha [11]: 10%; pest or weed control at 15.625 g/ha [12]: 0%; pest or weed control at 62.5 g/ha [12]: 60%; pest or weed control at 250 g/ha [12]: 90%
CN1C[C@H](c2ccc(C(F)(F)F)cc2)[C@@H](C(=O)Nc2cccnc2[N+](=O)[O-])C1=O (racemic) [Compound 1824] | 0% | 0% | 10% | 0% | 0% | 20% | 0% | 0% | 20% | 0% | 0% | 10% | 0% | 0% | 70% | 0% | 0% | 10% | 0% | 10% | pest or weed control at 250 g/ha [7]: 80%; plant injury at 15.625 g/ha (corn (Zea mays) [8]): 0%; plant injury at 62.5 g/ha (corn (Zea mays) [8]): 0%; plant injury at 250 g/ha (corn (Zea mays) [8]): 0%; pest or weed control at 15.625 g/ha [9]: 0%; pest or weed control at 62.5 g/ha [9]: 0%; pest or weed control at 250 g/ha [9]: 20%; pest or weed control at 15.625 g/ha [10]: 0%; pest or weed control at 62.5 g/ha [10]: 0%; pest or weed control at 250 g/ha [10]: 0%; pest or weed control at 15.625 g/ha [11]: 0%; pest or weed control at 62.5 g/ha [11]: 0%; pest or weed control at 250 g/ha [11]: 0%; pest or weed control at 15.625 g/ha [12]: 0%; pest or weed control at 62.5 g/ha [12]: 0%; pest or weed control at 250 g/ha [12]: 70%
C=Cc1cc(Oc2ccccc2)cc([C@@H]2CN(C)C(=O)[C@H]2C(=O)Nc2cccc(F)c2F)c1 (racemic) [Compound 1826] | 0% | 40% | 80% | 0% | 20% | 50% | 0% | 0% | 50% | 0% | 20% | 10% | 0% | 0% | 10% | 0% | 10% | 70% | 20% | 80% | pest or weed control at 250 g/ha [7]: 90%; plant injury at 15.625 g/ha (corn (Zea mays) [8]): 10%; plant injury at 62.5 g/ha (corn (Zea mays) [8]): 10%; plant injury at 250 g/ha (corn (Zea mays) [8]): 20%; pest or weed control at 15.625 g/ha [9]: 0%; pest or weed control at 62.5 g/ha [9]: 0%; pest or weed control at 250 g/ha [9]: 20%; pest or weed control at 15.625 g/ha [10]: 0%; pest or weed control at 62.5 g/ha [10]: 0%; pest or weed control at 250 g/ha [10]: 0%; pest or weed control at 15.625 g/ha [11]: 0%; pest or weed control at 62.5 g/ha [11]: 0%; pest or weed control at 250 g/ha [11]: 0%; pest or weed control at 15.625 g/ha [12]: 0%; pest or weed control at 62.5 g/ha [12]: 70%; pest or weed control at 250 g/ha [12]: 80%
